Results taken from publication PMC13397332 (Biochimica et biophysica acta. Proteins and proteomics, 2025).

Biological target: T1, OrnR (STM OrnR, ornithine racemase) (Salmonella enterica, UniProt Q8ZNC6)
T1 sequence (Q8ZNC6 1-367): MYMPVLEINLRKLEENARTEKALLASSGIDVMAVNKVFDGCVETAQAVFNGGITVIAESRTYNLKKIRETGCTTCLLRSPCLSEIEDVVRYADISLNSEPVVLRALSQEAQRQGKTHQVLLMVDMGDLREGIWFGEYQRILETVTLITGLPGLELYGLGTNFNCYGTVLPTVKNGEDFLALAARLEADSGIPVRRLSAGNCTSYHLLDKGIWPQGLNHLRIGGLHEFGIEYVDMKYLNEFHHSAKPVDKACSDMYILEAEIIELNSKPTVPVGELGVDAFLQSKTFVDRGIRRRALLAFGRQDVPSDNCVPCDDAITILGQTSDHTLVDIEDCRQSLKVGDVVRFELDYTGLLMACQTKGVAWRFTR
Conditions: read-out: S0.5; D to L direction, pH 9.2, 37 °C, 0.8 mM PLP; sigmoid, Hill fit

`NCCC[C@@H](N)C(=O)O` [D-ornithine] showed a Km of 12.8 ± 2.7 mM.
